Measured values taken from ChEMBL document CHEMBL1142949, “Dicarba analogues of the cyclic enkephalin peptides H-Tyr-c[D-Cys-Gly-Phe-D(or L)-Cys]NH(2) retain high opioid activity” (J Med Chem, 2007).

Columns and labels:
Mu-type opioid receptor [1] = molecular target: Mu-type opioid receptor (Cavia porcellus, UniProt P97266); assay: Agonist activity at mu opioid receptor in guinea pig ileum; type: functional, tissue-based
[2] = molecular target: Kappa-type opioid receptor (Cavia porcellus, UniProt P41144); assay: Displacement of [3H]U-69593 from guinea pig brain kappa opioid receptor
Kappa-type opioid receptor, sequence (P41144 whole entry): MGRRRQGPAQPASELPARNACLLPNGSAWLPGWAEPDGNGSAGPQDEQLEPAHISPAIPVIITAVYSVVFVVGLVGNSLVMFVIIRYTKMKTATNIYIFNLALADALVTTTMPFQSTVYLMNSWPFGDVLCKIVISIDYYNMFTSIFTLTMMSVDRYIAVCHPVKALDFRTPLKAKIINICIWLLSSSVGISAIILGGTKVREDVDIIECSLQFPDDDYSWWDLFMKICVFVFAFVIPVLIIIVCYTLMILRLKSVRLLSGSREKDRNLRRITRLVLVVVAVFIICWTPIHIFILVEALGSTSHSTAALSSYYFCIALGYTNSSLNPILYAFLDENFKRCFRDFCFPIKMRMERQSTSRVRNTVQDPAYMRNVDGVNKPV

[3] = molecular target: Delta-type opioid receptor (Rattus norvegicus, UniProt P33533); assay: Displacement of [3H]DSLET from rat brain delta opioid receptor
Delta-type opioid receptor (Rattus norvegicus, UniProt P33533), sequence (P33533 whole entry): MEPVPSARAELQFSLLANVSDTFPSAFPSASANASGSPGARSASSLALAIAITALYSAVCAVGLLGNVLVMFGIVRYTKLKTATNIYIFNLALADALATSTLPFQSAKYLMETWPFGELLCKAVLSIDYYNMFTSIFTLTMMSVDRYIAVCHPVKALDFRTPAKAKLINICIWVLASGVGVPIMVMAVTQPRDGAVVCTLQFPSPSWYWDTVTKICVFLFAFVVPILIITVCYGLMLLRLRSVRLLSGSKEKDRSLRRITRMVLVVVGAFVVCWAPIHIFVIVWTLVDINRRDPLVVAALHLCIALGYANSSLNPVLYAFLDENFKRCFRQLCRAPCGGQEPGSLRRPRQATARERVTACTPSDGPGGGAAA

[4] = molecular target: Delta-type opioid receptor (Mus musculus, UniProt P32300); assay: Agonist activity at delta opioid receptor in mouse vas deferens; type: functional, tissue-based
Delta-type opioid receptor (Mus musculus, UniProt P32300), sequence (P32300 whole entry): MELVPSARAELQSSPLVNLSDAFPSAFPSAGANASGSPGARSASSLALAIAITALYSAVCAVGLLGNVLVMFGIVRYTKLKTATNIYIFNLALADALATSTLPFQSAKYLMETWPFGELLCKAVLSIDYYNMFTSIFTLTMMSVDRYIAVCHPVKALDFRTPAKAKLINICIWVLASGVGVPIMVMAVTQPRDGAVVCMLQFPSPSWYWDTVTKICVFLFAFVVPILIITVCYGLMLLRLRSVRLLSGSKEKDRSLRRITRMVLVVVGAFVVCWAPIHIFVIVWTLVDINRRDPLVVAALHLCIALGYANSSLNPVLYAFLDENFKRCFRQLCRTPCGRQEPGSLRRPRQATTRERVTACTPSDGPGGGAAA

Mu-type opioid receptor [5] = molecular target: Mu-type opioid receptor (Rattus norvegicus, UniProt P33535); assay: Displacement of [3H]DAMGO from rat brain mu opioid receptor
Mu-type opioid receptor (Rattus norvegicus, UniProt P33535), sequence (P33535 whole entry): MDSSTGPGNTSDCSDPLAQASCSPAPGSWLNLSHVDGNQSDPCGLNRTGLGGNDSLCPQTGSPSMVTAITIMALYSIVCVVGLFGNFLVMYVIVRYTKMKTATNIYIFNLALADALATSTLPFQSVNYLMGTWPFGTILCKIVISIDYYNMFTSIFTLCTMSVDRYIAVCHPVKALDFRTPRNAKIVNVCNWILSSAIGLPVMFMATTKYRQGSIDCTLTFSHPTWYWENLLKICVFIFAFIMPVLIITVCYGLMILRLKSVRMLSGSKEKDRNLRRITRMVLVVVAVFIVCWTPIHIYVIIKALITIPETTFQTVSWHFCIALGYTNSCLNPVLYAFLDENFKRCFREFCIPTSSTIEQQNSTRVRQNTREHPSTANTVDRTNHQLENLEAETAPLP

Brain [6] = assay: Stability in rat brain membrane after 40 mins assessed as degradation by disulfide reductases; type: ADME, cell membranes
Brain [7] = assay: Stability in rat brain membrane upto 24 hrs assessed as degradation by disulfide reductases; type: ADME, cell membranes

Mu-type opioid receptor (Cavia porcellus, UniProt P97266), sequence (P97266 whole entry): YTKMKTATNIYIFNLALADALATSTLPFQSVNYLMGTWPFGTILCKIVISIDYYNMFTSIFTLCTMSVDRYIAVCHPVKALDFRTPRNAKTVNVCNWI

Row | SMILES | IC50 (Mu-type opioid receptor [1]) | Ki [2] | Ki [3] | IC50 [4] | Ki (Mu-type opioid receptor [5]) | Activity (Brain [6]) | Stability (Brain [7])
1 | NC(=O)[C@H]1C/C=C/C[C@@H](NC(=O)[C@@H](N)Cc2ccc(O)cc2)C(=O)NCC(=O)N[C@@H](Cc2ccccc2)C(=O)N1 | 5.63 nM | 30.4 nM | 1.92 nM | 4.38 nM | 1.05 nM | – | –
2 | NC(=O)[C@@H]1C/C=C\C[C@@H](NC(=O)[C@@H](N)Cc2ccc(O)cc2)C(=O)NCC(=O)N[C@@H](Cc2ccccc2)C(=O)N1 | 1.81 nM | 200 nM | 6.55 nM | 0.496 nM | 2.4 nM | Not Active | –
3 | NC(=O)[C@H]1CCCC[C@@H](NC(=O)[C@@H](N)Cc2ccc(O)cc2)C(=O)NCC(=O)N[C@@H](Cc2ccccc2)C(=O)N1 | 11.2 nM | 71.5 nM | 3.34 nM | 3.64 nM | 1.17 nM | – | –
4 | NC(=O)[C@@H]1C/C=C/C[C@@H](NC(=O)[C@@H](N)Cc2ccc(O)cc2)C(=O)NCC(=O)N[C@@H](Cc2ccccc2)C(=O)N1 | 0.898 nM | 57.6 nM | 1.25 nM | 0.275 nM | 0.616 nM | Not Active | –
5 | NC(=O)[C@@H]1CSSC[C@@H](NC(=O)[C@@H](N)Cc2ccc(O)cc2)C(=O)NCC(=O)N[C@@H](Cc2ccccc2)C(=O)N1 | – | 40.1 nM | – | – | – | Not Active | Stable
6 | NC(=O)[C@H]1C/C=C\C[C@@H](NC(=O)[C@@H](N)Cc2ccc(O)cc2)C(=O)NCC(=O)N[C@@H](Cc2ccccc2)C(=O)N1 | 11.9 nM | 498 nM | 7.04 nM | 9.91 nM | 2.27 nM | – | –
7 | NC(=O)[C@@H]1CCCC[C@@H](NC(=O)[C@@H](N)Cc2ccc(O)cc2)C(=O)NCC(=O)N[C@@H](Cc2ccccc2)C(=O)N1 | 1.02 nM | 309 nM | 5.87 nM | 3.19 nM | 2.34 nM | Not Active | –
